Data reported in publication PMC6832219, “Synthesis of Novel Baicalein Amino Acid Derivatives and Biological Evaluation as Neuroprotective Agents” (Molecules, 2019).
Like-named read-outs stand apart in the source and are kept apart here.

Experiments:
injured SH-SY5Y cells = assay: Protective effect against tert-butyl hydroperoxide-induced SH-SY5Y neurotoxicity cells (MTT assay); assay type: cell-based; details: for viability at 3.125 µM / viability at 6.25 µM / viability at 12.5 µM / viability at 25 µM / viability at 50 µM / Proliferation Rate (%): injured SH-SY5Y cells; for viability at 3.125 µM / viability at 6.25 µM / viability at 12.5 µM / viability at 25 µM / viability at 50 µM: read-out: Proliferation Rate (%); for EC50: tert-butyl hydroperoxide-induced SH-SY5Y neurotoxicity, read-out: EC50 for protecting injured SH-SY5Y cells;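 on Proliferation Rate (%): 0% equals CoCl2-injured cells and 100% equals NGF-treated cells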
Method: The protective effects of baicalein derivatives in vitro was evaluated against tert-butyl, hydroperoxide-induced, SH-SY5Y neurotoxicity cells using an MTT assay. In addition, their toxicity evaluation was tested on normal H9C2 cells. The resulting proliferation rates (%) at different concentrations, as well as their 50% effective concentrations (EC50) for protecting damaged SH-SY5Y cells of the baicalein amino acid derivatives, are summarized in Table 2.
(§1) The SH-SY5Y ([…]) and H9C2 ([…]) cell lines were obtained from the Chinese Academy of Medical Sciences and Peking Union Medical College. All of the cell lines were grown in dulbecco’s modified eagle medium (DMEM) with 10% (v/v) fetal bovine serum (FBS) and 1% (v/v) penicillin/streptomycin (Thermo Technologies, New York, NY, USA), under a humidified atmosphere containing 5% CO2 at 37 °C. The baicalein derivatives were dissolved in DMSO (Sigma, St. Louis, MO, USA) and added at various concentrations to the cell culture.
(§2) The protective effect of these compounds was evaluated on SH-SY5Y and H9C2 cell lines via the MTT method. The cells growing in the logarithmic phase were cultured in 96-well plates at a density 3 × 10^3 cells/well and incubated for 24 h. Then each well was treated with the required concentrations (50 µM concentrations, 25 µM concentrations, 12.5µM concentrations, 6.25 µM concentrations, and 3.125 µM concentrations) of baicalein derivatives, and incubated 36 h at 37 °C with 5% CO2. After that, the cells were induced by H2O2 (final concentration, […]) for 12 h. Control-differentiated cells were injected with new growth media at equal amounts. Before […] MTT solution (5 mg/mL) was added to each well, the cell culture fluid was discarded, and […] fresh cell culture fluid was added. The plate was incubated for a further 4 h at 37 °C. The cell supernatant medium was removed carefully, without disturbing the attached cells, and formazan crystals were solubilized by adding 150 μL DMSO into each well. The absorbance was measured at 490 nm with a plate reader (BIORAD 550 spectrophotometer, Bio-rad Life Science Development Ltd., Beijing, China). H2O2 was dissolved in DMEM medium. Wells without drugs were used as blanks. The EC50 values were defined as the concentrations that causes the maximum effect of 50%; IC50 values were defined as the concentration of compound which gives 50% growth inhibition, and were calculated using the GraphPad Prism 5. The proliferation rates of damaged SH-SY5Y cells were calculated in the following formula (1): [OD490 (compound) − OD490 (CoCl2)]/[OD490 (NGF) − OD490 (CoCl2)] × 100%(1) The EC50 values were using the equation −pEC50 = log Cmax − log 2 × (ΣP − 0.75 + 0.25Pmax + 0.25Pmin)(2) where Cmax is the maximum concentration, ΣP is the sum of proliferation rates, Pmax is the maximum value of the proliferation rate, and Pmin is the minimum value of the proliferation rate. Cell viability was expressed as a percentage of the control.

H9C2 cells [1] = assay: Toxicity on normal H9C2 cells (MTT assay); assay type: cell-based; details: MTT; for viability at 6.25 µM / viability at 12.5 µM / viability at 25 µM / viability at 50 µM / Survival Rate (%): H9C2 cells; for viability at 6.25 µM / viability at 12.5 µM / viability at 25 µM / viability at 50 µM: read-out: Survival Rate (%); for IC50: normal H9C2 cells
Method: To study cytotoxicity on normal cells, the cytotoxicity of compounds against normal H9C2 cells were tested.
as §1, §2
The inhibition rate was calculated in the following equation: % inhibition = 1 − (Sample group OD/Control group OD) × 100%(3)

H9C2 cells [2] = assay: Toxicity on normal H9C2 cells (MTT assay); assay type: cell-based; details: for viability at 100 µM: read-out: Survival Rate (%); for Survival Rate (%): 100 µM

Row | Molecule | viability at 3.125 µM (injured SH-SY5Y cells; Homo sapiens, 3.125 µM) [%] | viability at 6.25 µM (injured SH-SY5Y cells; Homo sapiens, 6.25 µM) [%] | viability at 12.5 µM (injured SH-SY5Y cells; Homo sapiens, 12.5 µM) [%] | viability at 25 µM (injured SH-SY5Y cells; Homo sapiens, 25 µM) [%] | viability at 50 µM (injured SH-SY5Y cells; Homo sapiens, 50 µM) [%] | EC50 (injured SH-SY5Y cells; Homo sapiens) [µM] | viability at 6.25 µM (H9C2 cells [1]; 6.25 µM) [%] | viability at 12.5 µM (H9C2 cells [1]; 12.5 µM) [%] | viability at 25 µM (H9C2 cells [1]; 25 µM) [%] | viability at 50 µM (H9C2 cells [1]; 50 µM) [%] | IC50 (H9C2 cells [1]) [µM] | melting point [°C] | viability at 100 µM (H9C2 cells [2]) [%] | further results
1 | CC(C)CC(NC(=O)OC(C)(C)C)C(=O)Oc1cc2oc(-c3ccccc3)cc(=O)c2c(O)c1O (stereo not shown) [Compound 15, 5,6-dihydroxy-4-oxo-2-phenyl-4H-chromen-7-yl 2-{[(tert-butoxy)carbonyl]amino}-4-methyl-pentanoate] | 17.8 | 42.8 | 42.5 | 41.3 | 22.3 | 23.9 | 196 | 193 | 177 | 173 | > 100 | 199.3 | 159 | 
2 | O=C(CC(NC(=O)OCc1ccccc1)C(=O)Oc1c(O)cc2oc(-c3ccccc3)cc(=O)c2c1O)OCc1ccccc1 (stereo not shown) [Compound 9, 1-benzyl 5,7-dihydroxy-4-oxo-2-phenyl-4H-chromen-6-yl 3-{[(benzyloxy)carbonyl]amino} butanedioate] | 28.1 | 98.2 | 79.6 | 101 | 84.2 | 4.47 | 153 | 133 | 130 | 115 | > 100 | 100.7 | 107 | 
3 | CC(C)(C)C(NC(=O)OCc1ccccc1)C(=O)Oc1cc2oc(-c3ccccc3)cc(=O)c2c(O)c1OC(=O)C(NC(=O)OCc1ccccc1)C(C)(C)C (stereo not shown) [Compound 2] | 45.1 | 48.2 | 81 | 107 | 94.2 | 4.79 | 213 | 150 | 133 | 112 | > 100 | 195.8 | 108 | 
4 | 1-tert-butyl 2-(5,7-dihydroxy-4-oxo-2-phenyl-chroman-6-yl) pyrrolidine-1,2-dicarboxylate [Compound 11] |  |  |  |  |  |  |  |  |  |  | 95.2 |  |  | Proliferation Rate (%) (injured SH-SY5Y cells; 3.125 µM): 47.94%; Proliferation Rate (%) (injured SH-SY5Y cells; 6.25 µM): 86.25%; Proliferation Rate (%) (injured SH-SY5Y cells; 12.5 µM): 78.16%; Proliferation Rate (%) (injured SH-SY5Y cells; 25 µM): 74.48%; Proliferation Rate (%) (injured SH-SY5Y cells; 50 µM): 64.80%; EC50 (injured SH-SY5Y cells): 5.82 µM; Survival Rate (%) (H9C2 cells [1]; 6.25 µM): 70.98%; Survival Rate (%) (H9C2 cells [1]; 12.5 µM): 67.32%; Survival Rate (%) (H9C2 cells [1]; 25 µM): 61.98%; Survival Rate (%) (H9C2 cells [1]; 50 µM): 60.67%; Survival Rate (%) (H9C2 cells [2]): 45.75%
5 | CC(C)(C)C(NC(=O)OCc1ccccc1)C(=O)Oc1c(O)cc2oc(-c3ccccc3)cc(=O)c2c1O (stereo not shown) [Compound 3, 5,7-dihydroxy-4-oxo-2-phenyl-4H-chromen-6-yl 2-{[(benzyloxy)carbonyl]amino}-3,3-dimethylbutanoate] | 15.3 | 14.8 | 8.1 | 0.15 | -0.18 | 62.4 | 144 | 137 | 135 | 132 | > 100 | 170.1 | 104 | 
6 | CC1=NN(c2ccccc2)C(=O)C1 [Edaravone, reference compound] | 61.4 | 85.8 | 76.1 | 69.9 | 60.7 | 5.62 |  |  |  |  |  |  |  | 
7 | O=c1cc(-c2ccccc2)oc2cc(O)c(O)c(O)c12 [Baicalein, 5,6,7-trihydroxyflavone] | 54.7 | 35.1 | 29.9 | 28.4 | 11.7 | 24.8 | 212 | 198 | 179 | 170 | > 100 |  | 168 | 
8 | CC(C)(C)OC(=O)NC(Cc1ccccc1)C(=O)Oc1c(O)cc2oc(-c3ccccc3)cc(=O)c2c1O (stereo not shown) [Compound 6, 5,7-dihydroxy-4-oxo-2-phenyl-4H-chromen-6-yl 2-{[(tert-butoxy)carbonyl]amino}-3-phenylpropanoate] | 8.61 | 20 | 24.8 | 21.6 | 16.7 | 42 | 157 | 154 | 154 | 137 | > 100 |  | 122 | 
9 | 5,6-dihydroxy-4-oxo-2-phenyl-chroman-7-yl 2-{[(tert-butoxy)carbonyl]amino}-3-methyl-pentanoate [Compound 10] |  |  |  |  |  |  |  |  |  |  | > 100 |  |  | Proliferation Rate (%) (injured SH-SY5Y cells; 3.125 µM): 75.23%; Proliferation Rate (%) (injured SH-SY5Y cells; 6.25 µM): 77.21%; Proliferation Rate (%) (injured SH-SY5Y cells; 12.5 µM): 79.27%; Proliferation Rate (%) (injured SH-SY5Y cells; 25 µM): 74.55%; Proliferation Rate (%) (injured SH-SY5Y cells; 50 µM): 63.22%; EC50 (injured SH-SY5Y cells): 5.07 µM; Survival Rate (%) (H9C2 cells [1]; 6.25 µM): 194.73%; Survival Rate (%) (H9C2 cells [1]; 12.5 µM): 179.84%; Survival Rate (%) (H9C2 cells [1]; 25 µM): 169.33%; Survival Rate (%) (H9C2 cells [1]; 50 µM): 152.13%; Survival Rate (%) (H9C2 cells [2]): 141.70%
